Series [1] has as its system PV IRES. The series can be described thus: cells. It is filed as cell-based, poliovirus.
Series [2] has as its system wild-type poliovirus. It counts as cell-based.
Where [3] appears, read: Enterovirus C, HEK-293T, 20 h, read-out: WTPV mono luc IC50 (μM).
The mark [4] stands for this setting: 1 μM compound, Hela cells infected with wild-type poliovirus at MOI 0.1, treated for one day, CPE score.
Where [5] appears, read: 10 μM compound, Hela cells infected with wild-type poliovirus at MOI 0.1, treated for one day, CPE score.
[6] abbreviates: 100 μM compound, Hela cells infected with wild-type poliovirus at MOI 0.1, treated for one day, CPE score.

The values that follow come from patent US7772271B2 (priority 2004, dated 2010).

SMILES strings stand for the structures. Read-outs that look alike come from different tables or passages of the source.

With `COc1ccc(-n2cc(C#N)c3ccc(OC)cc32)cc1` [compound 4], in series [1] (read-out: WTPV mono luc IC50), the IC50 (commonly the concentration that inhibits the measured activity by half) is 0.8 µM. For the same compound, in series [2], the “WT-PV CPE (1 μM)*” value is recorded as 1, the “WT-PV CPE (10 μM)*” value came out at 2 and the “WT-PV CPE (100 μM)*” value worked out at 3.
Turning to `CCn1cc(C#N)c2ccc(OC)cc21` [compound 5, 1-ethyl-6-methoxy-1H-indole-3-carbonitrile], the IC50 in series [1] (setting [3]) turned out to be 9 µM. Besides, in series [2] (setting [4]), the “WT-PV CPE (1 μM)*” value is given as 1. Besides, the “WT-PV CPE (10 μM)*” value in series [2] (setting [5]) is reported as 2. Besides, the “WT-PV CPE (100 μM)*” value in series [2] (setting [6]) came to 3.
Take `CCOc1ccc2c(C#N)cn(CC)c2c1` [compound 9, 6-ethoxy-1-ethyl-1H-indole-3-carbonitrile]: the IC50 in series [1] (setting [3]) is > 100 µM. Besides, in series [2] (setting [4]), the “WT-PV CPE (1 μM)*” value is 2. In series [2] (setting [5]), the “WT-PV CPE (10 μM)*” value was 2. For the same compound, the “WT-PV CPE (100 μM)*” value in series [2] (setting [6]) is given as 3.
Regarding `COc1ccc2c(C#N)c(C)n(-c3ccc4c(c3)OCO4)c2c1` [compound 24], the IC50 in series [1] (read-out: WTPV mono luc IC50) is 1.5 µM. In series [2], the “WT-PV CPE (1 μM)*” value was determined as 2, the “WT-PV CPE (10 μM)*” value turned out to be 2 and the “WT-PV CPE (100 μM)*” value is reported as 3.
Consider `CCn1c(-c2ccc(OC)cc2)c(C#N)c2ccc(OC)cc21` [compound 19], for which the IC50 in series [1] (read-out: WTPV mono luc IC50) worked out at 15 µM. In series [2], the “WT-PV CPE (1 μM)*” value stood at 1, the “WT-PV CPE (10 μM)*” value came out at 2 and the “WT-PV CPE (100 μM)*” value came out at 3.
For the compound `CCn1cc(C#N)c2ccc(OC(C)C)cc21` [compound 10], the IC50 in series [1] (read-out: WTPV mono luc IC50) is > 100 µM. For the same compound, in series [2], the “WT-PV CPE (1 μM)*” value was 2, the “WT-PV CPE (10 μM)*” value worked out at 2 and the “WT-PV CPE (100 μM)*” value is 3.
For the compound `CCOc1ccc2c(C#N)c(-c3ccc(NC(=O)NCCc4ccccn4)cc3)n(C3CCC3)c2c1` [Compound 1392], the melting point (usually the temperature, or range, at which the solid turns liquid) was 193 to 197 °C.
As for `CC(C)(C)c1csc(Nc2ccc(-c3c(C#N)c4ccc(OC5CCOCC5)cc4n3C3CCC3)cc2)n1` [Compound 3151], the melting point is 246 to 248 °C.
